Laboratory results from patent publication US12404250B2, “PARP inhibitors for treating cancer and asthma” (Oregon Health & Science University, priority 2018, dated 2025).

What was measured:
PARP5 bcat = target: T1, PARP5 bcat (Homo sapiens, UniProt Q9H2K2); assay: In vitro IC50, PARP5bcat; type: biochemical; details: SEM from a minimum of three dose-response experiments
T1 construct: bcat

PARP6 = target: T2, PARP6 (Homo sapiens, UniProt Q2NL67); assay: In vitro IC50, immunoprecipitated GFP-PARP6 auto-MARylation; type: biochemical
T2 construct: expressed in transfected cells; host or cells: HEK 293T
Experimental: Auto-MARylation was analyzed by Western blot with an ADP-ribose (ADPr) binding reagent (uncropped blots shown below).

PARP7 = target: T3, PARP7 (Homo sapiens, UniProt Q7Z3E1); assay: In vitro IC50, PARP7; type: biochemical; details: SEM from a minimum of three dose-response experiments
T3 sequence (Q7Z3E1 1-657): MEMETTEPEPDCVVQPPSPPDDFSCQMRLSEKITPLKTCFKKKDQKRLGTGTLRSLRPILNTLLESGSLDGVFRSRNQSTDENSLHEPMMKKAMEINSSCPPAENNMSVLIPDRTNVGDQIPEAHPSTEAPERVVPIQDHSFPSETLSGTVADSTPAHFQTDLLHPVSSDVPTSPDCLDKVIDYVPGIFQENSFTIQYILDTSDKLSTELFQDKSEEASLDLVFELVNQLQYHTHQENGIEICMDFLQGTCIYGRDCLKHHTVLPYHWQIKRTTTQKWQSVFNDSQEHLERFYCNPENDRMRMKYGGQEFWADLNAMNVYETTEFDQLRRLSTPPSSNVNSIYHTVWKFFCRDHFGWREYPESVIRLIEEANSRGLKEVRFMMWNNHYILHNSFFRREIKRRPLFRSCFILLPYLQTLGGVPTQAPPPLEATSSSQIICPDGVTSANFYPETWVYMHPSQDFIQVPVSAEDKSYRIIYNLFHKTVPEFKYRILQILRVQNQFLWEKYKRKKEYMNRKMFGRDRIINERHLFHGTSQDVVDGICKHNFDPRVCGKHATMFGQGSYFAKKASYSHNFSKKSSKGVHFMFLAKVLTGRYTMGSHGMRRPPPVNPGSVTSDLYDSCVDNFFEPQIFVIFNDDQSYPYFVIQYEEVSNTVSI

PARP10cat = target: T4, PARP10cat (Homo sapiens, UniProt Q53GL7); assay: In vitro IC50, PARP10cat; type: biochemical; details: SEM from a minimum of three dose-response experiments
T4 construct: bcat; cat; PARP11
T4 sequence (Q53GL7 806-1025 limits assumed): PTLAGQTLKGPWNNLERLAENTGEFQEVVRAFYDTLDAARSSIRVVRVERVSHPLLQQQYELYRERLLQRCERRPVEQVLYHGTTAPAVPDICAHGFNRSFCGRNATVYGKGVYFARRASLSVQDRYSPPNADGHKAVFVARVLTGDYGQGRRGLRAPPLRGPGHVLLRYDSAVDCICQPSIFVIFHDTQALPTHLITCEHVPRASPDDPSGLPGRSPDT

PARP14 cat-wwe = target: T5, PARP14 cat-wwe (Homo sapiens, UniProt Q460N5); assay: In vitro IC50, PARP14 cat-wwe; type: biochemical; details: SEM from a minimum of three dose-response experiments
T5 construct: PARP14 cat-wwe; no borders given for the assay protein
T5 sequence (Q460N5 1523-1801 limits assumed): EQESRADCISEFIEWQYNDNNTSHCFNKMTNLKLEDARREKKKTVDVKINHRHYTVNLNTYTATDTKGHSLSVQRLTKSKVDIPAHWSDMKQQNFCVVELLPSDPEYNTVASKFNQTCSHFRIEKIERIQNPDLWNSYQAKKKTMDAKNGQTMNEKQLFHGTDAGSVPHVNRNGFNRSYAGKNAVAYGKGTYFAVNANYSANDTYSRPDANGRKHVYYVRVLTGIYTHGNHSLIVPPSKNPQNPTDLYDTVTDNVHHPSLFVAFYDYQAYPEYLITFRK

PARP15 cat = target: T6, PARP15 cat (Homo sapiens, UniProt Q460N3); assay: In vitro IC50, PARP15 cat; type: biochemical; details: SEM from a minimum of three dose-response experiments
T6 construct: cat-wwe; cat
T6 sequence (Q460N3 482-678 limits assumed): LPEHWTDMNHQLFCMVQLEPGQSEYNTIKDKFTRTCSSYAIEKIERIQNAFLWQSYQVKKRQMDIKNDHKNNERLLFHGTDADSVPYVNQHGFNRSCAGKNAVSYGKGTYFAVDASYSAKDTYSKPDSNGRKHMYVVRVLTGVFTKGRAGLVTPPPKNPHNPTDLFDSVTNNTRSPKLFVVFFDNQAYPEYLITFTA

PARP10 = target: T7, PARP10 (Homo sapiens, UniProt Q53GL7); assay: GFP-PARP10 auto-MARylation in HEK 293T cells (Western blot); details: for Inhibition of PARP10 auto-MARylation in cells at 3 μM: HEK 293T cells transfected with GFP-PARP10, 3 μM for 3 h
T7 sequence (Q53GL7 1-1025): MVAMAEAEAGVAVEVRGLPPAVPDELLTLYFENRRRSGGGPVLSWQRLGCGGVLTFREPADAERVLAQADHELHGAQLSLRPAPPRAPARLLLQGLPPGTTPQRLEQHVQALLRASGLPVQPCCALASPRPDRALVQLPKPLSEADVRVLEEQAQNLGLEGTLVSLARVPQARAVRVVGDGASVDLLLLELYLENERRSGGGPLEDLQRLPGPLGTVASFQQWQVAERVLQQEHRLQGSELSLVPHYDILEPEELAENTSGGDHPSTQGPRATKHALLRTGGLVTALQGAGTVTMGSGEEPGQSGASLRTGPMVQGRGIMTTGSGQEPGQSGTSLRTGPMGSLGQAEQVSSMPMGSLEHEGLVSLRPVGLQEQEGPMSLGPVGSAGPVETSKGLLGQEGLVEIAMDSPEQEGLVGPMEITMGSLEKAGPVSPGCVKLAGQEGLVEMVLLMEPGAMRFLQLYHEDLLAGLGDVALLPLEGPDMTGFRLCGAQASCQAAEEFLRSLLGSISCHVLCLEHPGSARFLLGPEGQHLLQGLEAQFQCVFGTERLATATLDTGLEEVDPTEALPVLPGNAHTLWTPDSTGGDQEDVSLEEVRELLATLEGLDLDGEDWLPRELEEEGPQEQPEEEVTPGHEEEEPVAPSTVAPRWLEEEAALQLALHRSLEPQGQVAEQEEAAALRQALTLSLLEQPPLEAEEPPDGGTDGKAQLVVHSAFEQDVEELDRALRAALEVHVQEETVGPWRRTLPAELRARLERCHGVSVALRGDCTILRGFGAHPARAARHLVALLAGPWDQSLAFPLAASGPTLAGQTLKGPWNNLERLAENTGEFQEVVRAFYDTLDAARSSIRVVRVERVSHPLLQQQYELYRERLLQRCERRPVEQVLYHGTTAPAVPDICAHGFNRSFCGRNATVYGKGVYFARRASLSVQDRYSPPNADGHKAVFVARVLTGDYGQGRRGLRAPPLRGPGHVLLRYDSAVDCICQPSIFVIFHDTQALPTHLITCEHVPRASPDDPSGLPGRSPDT

T1 sequence (Q9H2K2 959-1164): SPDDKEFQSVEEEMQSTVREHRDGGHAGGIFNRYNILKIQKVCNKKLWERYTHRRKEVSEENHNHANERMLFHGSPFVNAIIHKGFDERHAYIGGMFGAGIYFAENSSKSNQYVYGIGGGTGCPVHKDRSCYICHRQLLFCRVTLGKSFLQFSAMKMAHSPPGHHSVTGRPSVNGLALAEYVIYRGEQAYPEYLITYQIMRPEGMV
T2 sequence (Q2NL67 whole entry): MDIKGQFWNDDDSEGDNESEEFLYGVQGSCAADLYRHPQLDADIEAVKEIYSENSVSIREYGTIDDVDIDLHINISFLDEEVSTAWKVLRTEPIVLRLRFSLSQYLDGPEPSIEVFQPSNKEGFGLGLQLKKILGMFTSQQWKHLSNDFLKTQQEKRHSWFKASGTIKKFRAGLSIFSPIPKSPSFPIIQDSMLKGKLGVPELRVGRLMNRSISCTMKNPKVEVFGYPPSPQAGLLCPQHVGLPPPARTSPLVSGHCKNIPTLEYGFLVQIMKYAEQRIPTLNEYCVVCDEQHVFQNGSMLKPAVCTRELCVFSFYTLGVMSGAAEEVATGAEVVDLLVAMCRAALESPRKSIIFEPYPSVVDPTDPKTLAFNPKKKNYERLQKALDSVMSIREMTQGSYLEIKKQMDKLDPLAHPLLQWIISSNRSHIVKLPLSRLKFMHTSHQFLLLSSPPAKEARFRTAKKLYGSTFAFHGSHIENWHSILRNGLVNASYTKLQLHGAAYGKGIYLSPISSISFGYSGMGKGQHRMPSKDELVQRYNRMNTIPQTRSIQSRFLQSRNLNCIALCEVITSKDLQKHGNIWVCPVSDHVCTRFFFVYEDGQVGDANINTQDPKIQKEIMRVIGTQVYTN

Compound | IC50 (PARP5 bcat) [nM] | IC50 (PARP6) [nM] | IC50 (PARP7) [nM] | IC50 (PARP10cat) [nM] | IC50 (PARP14 cat-wwe) [nM] | IC50 (PARP15 cat) [nM] | Inhibition of PARP10 auto-MARylation in cells at 3 μM (PARP10) | Inhibition of PARP10 auto-MARylation in cells, dose response (PARP10; HEK 293T cells transfected with GFP-PARP10, increasing concentrations for 90 min)
CC#Cc1ccc2c(=O)[nH]c(CSc3ccc(C(=O)O)cc3)nc2c1C [ITK6, 4-(((8-methyl-4-oxo-7-(prop-1-yn-1-yl)-3,4-dihydroquinazolin-2-yl)methyl)thio) benzoic acid] | > 30000 | > 3000 | 24600 ± 500 | 156 ± 18 | 917 ± 86 | 496 ± 190 | inhibits PARP10 auto-MARylation in cells | inhibits PARP10 auto-MARylation in cells in a dose dependent manner
CC#Cc1ccc2c(=O)[nH]c(CSc3ncccn3)nc2c1C [ITK7, 8-methyl-7-(prop-1-yn-1-yl)-2-((pyrimidin-2-ylthio)methyl)quinazolin-4(3H)-one] | > 30000 | > 3000 | 2460 ± 500 | 9280 ± 1570 | 2860 ± 350 | > 30000 | does not inhibit PARP10 | 
